Data published in patent US20250208141A1, “FLUORESCENT PROBE FOR LABELING M1 MACROPHAGES, AND M1 MACROPHAGE MONITORING SYSTEM USING SAME” (INSTITUTE FOR BASIC SCIENCE, priority 2022, published 2025).

Assays:
[1] = system: GLUTs; experiment: Glucose (D/L-glucose) competition test with CDr17 in M1 macrophages; assay type: cell-based, mouse; conditions: D/L-glucose 0, 20, 60 mM; CDr17 1 μM; M1 macrophages from RAW264.7
Experimental: In order to analyze a mechanism for selectivity of the compounds (probes) according to the examples, test was performed as follows, using the CDr17 compound of Example 8. First, in order to analyze whether the selectivity of CDr17 is related to GLUTs in cells, a glucose competition test was performed by the following method. As an M1 macrophage medium having no glucose differentiated in RAW264.7 cells, a medium comprising 10% Heat-Inactivated Fetal Bovine Serum (Gibco) and 1% penicillin streptomycin (WELGENE) comprising D/L-glucose at various concentrations (0 (Cont.), 20, 60 mM) were cultured for 5 minutes, and CDr17 (1 μM) was added. The nucleus was stained with Hoechst33342 (1 μg/mL), and the medium was replaced with a fresh medium after 30 minutes. Fluorescence microscopic imaging was performed with Operetta High Throughput screening with a 40× objective lens.

[2] = system: THP-1 M0, M1, M2 macrophages; experiment: M1 macrophage selectivity by comparison with 2-NBDG in THP-1 macrophages; assay type: cell-based, human
Text: In order to compare the selectivity of CDr17 for M1 macrophages, 2-NBDG which is a generally used fluorescent probe was applied to THP-1 which is a macrophage cell line of human origin and tested.

[3] = molecular target: T1, GLUT1 (Mus musculus, UniProt P17809); experiment: GLUT1 blocking with STF-31, then CDr17 fluorescence in M1 macrophages; assay type: cell-based; conditions: M1 macrophage of RAW264.7; 1 μM CDr17 for 30 minutes
T1 construct: endogenous in cells; host or cells: M1 macrophages of RAW264.7 cells
T1 sequence (P17809 1-492): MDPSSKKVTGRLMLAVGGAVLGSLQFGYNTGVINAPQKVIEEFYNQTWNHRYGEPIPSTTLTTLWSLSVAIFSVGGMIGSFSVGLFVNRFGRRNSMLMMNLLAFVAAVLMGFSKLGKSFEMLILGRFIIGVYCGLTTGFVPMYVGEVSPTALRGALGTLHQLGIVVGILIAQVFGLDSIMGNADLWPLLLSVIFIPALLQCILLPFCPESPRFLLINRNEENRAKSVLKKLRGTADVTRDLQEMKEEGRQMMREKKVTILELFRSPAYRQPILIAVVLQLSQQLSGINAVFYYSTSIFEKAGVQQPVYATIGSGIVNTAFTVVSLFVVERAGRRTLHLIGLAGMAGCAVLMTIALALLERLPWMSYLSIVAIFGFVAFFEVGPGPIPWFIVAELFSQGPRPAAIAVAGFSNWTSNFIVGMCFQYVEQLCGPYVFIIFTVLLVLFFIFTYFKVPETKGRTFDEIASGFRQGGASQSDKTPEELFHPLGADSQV
Experimental: Next, the function of GLUT1 was blocked using STF-3121 which is a selective inhibitor of GLUT1 in the M1 macrophage of RAW264.7, and then a treatment was performed with 1 μM CDr17 for 30 minutes to monitor the inhibition effect.

[4] = system: GLUT; experiment: GLUT inhibition test (CDr17 absorption) with cytochalasin B19; assay type: cell-based, mouse; conditions: inhibitor 0, 0.03, 0.1, 0.3 μM, 30 minutes, M1 macrophage
Experimental: Next, a GLUT inhibition test was performed using cytochalasin B19 which is a general GLUT inhibitor. An inhibitor at various concentrations (0, 0.03, 0.1, 0.3 μM) was cultured for 30 minutes with the M1 macrophage, cells were treated with CDr17, and the fluorescence intensity was analyzed (FIG. 3).

Compound: O=C[C@H](O)[C@@H](O)[C@H](O)[C@H](O)CO [D-glucose]
- effect on CDr17 fluorescence intensity / absorption by the M1 macrophage [1]: decreased dose-dependently

Compound: O=[N+]([O-])c1ccc(N[C@H]2C(O)O[C@H](CO)[C@@H](O)[C@@H]2O)c2nonc12 (stereo partly drawn) [Example 2-NBDG, 2-NBDG]
- ability to distinguish M1 macrophage from M0 and M2 by fluorescence intensity ([2]; THP-1, CDr17 0.5 μM, 2-NBDG 1, 5, 10, 50, 100 μM): M1 and M2 macrophages were not able to be clearly distinguished at any concentration
- concentration needed for observation of fluorescence intensity ([2]; THP-1 macrophages): 100 µM

Compound: O=C[C@@H](O)[C@H](O)[C@@H](O)[C@@H](O)CO [L-glucose]
- effect on CDr17 fluorescence intensity / absorption by the M1 macrophage [1]: did not affect absorption of CDr17

Compound: CC(C)(C)c1ccc(S(=O)(=O)NCc2ccc(C(=O)Nc3cccnc3)cc2)cc1 [STF-31]
- entry of CDr17 into M1 cells [3]: significantly decreased dependently on the dose

Compound: cytochalasin B19
- effect on absorption of CDr17 through GLUT [4]: blocked dose-dependently absorption of CDr17 through GLUT
